Tested on: duodenal mucosal alkaline secretion
Experiment: Test C: duodenal mucosal alkaline secretion assay
Format: in vivo
Conditions: co-administration with title compounds of the Examples, anaesthetised rats
Text: Duodenal Mucosal Alkaline Secretion Assay
Compounds were exposed to the duodenal mucosa in barbiturate-anaesthetised rats prepared for in situ titration of duodenal mucosal alkaline secretion, according to the methodology described by Flemström et al in Am. J. Physiol. (1982) 243, G348.

Cc1cc(Cn2cnc3c2C[C@@H](C(=O)O)N(C(=O)C(c2ccccc2)c2ccccc2)C3)ccc1N(C)C [PD123319]
effect of co-administration on the mucosal alkalisation stimulated by title compounds: blocked

— patent US7652054B2, “Tricyclic compounds useful as angiotensin II agonists” (Vicore Pharma AB, priority 2001, dated 2010)
